“And” between values parts separate entries of the source, which are not always exact repeats. Equal values may be shown once.
System: 994946-033-R-J1-PDC complex spheroid viability
Assay: Anticancer human tumor 994946-033-R-J1-PDC patient-derived melanoma cell line growth inhibition [POLQ]
Details: for viability, T/C: stronger effect = lower value
Description: Multicellular complex tumor spheroid response to Polymerase (POL) inhibitors (novobiocin, ART-558, RP6685) in combination with a variety of drugs and investigational agents in selected tumor cell lines
The POL inhibitors (novobiocin, ART-558, and RP6685) were evaluated both individually and in combination with standard of care and investigational anticancer small molecules within a complex spheroid model of solid tumors. . Complex spheroids include a stromal component modeled by human endothelial cells (HUVEC) and fibroblasts modeled by human mesenchymal stem cells (MSCs). The concentration ranges selected for each drug and investigational agent were based upon clinically achievable concentrations if the clinical Cmax of the agent was known.
Compounds. The drugs and investigational agents: novobiocin (NSC847541), ART-558 (NSC835418), RP-6685 (NSC848927), peposertib (NSC802822), ceralasertib (NSC780249), elimusertib (NSC800525), camonsertib (NSC841442), AZD-1390 (NSC803789), olaparib (NSC753686), talazoparib (NSC767125), rucaparib (NSC756644), sotorasib (NSC818433), MRTX-1133 (NSC836407), SN-38 (NSC673596), topotecan (NSC609699), epotoside (NSC141540), doxorubicin (NSC123127), gemcitabine (NSC613327), 5-fluorouracil (NSC19893), paclitaxel (NSC125973), vemurafenib (NSC761431), MSA-2 (NSC828583), SN-011 (NSC837082), adavosertib (NSC754352), prexasertib (NSC758257), carboplatin (NSC241240) and oxaliplatin (NSC266046), were obtained from the National Cancer Institute (NCI) Developmental Therapeutics Program Chemical Repository (21). The FDA-approved anticancer drug set is available from the Developmental Therapeutics Program at https://dtp.cancer.gov/organization/dscb/obtaining/. […] The stock solutions were prepared in dimethyl sulfoxide (DMSO, Sigma-Aldrich, St. Louis, MO, cat. D2650), except for the platinum compounds which were prepared in saline (Quality Biological, Gaithersburg, MD, cat. 114-055-101), at 800-fold the tested concentration and stored at -70 degrees C prior to their use. All drugs and investigational agents were tested over a range starting from a high concentration at or near the clinical Cmax and decreasing in half-log increments. If the clinical Cmax for an agent had not been determined, the highest concentration tested was 10 microM, except for SN-38, which was tested at a high concentration of 1 microM.
Cell Culture. All cells were maintained in an incubator at 37 degrees C and 5% CO2 with 95% humidity. The PDC lines were cultured according to standard operating procedures established by the NCI PDMR (https://pdmr.cancer.gov). Table 3 of the manuscript, lists the cell lines along with the number of the three cell types plated to form the mct-spheroids and media for tumor cell growth. After thawing, all PDC lines, except 997537-175-T-J1-PDC and 415267-285-R-J2-PDC, were cultured in Matrigel-coated flasks prepared with a working solution of 1X Ham's F-12 nutrient mix, without supplementation (Thermo Fisher Scientific, cat. 11765054), 100 U/mL penicillin-streptomycin (Thermo Fisher Scientific, cat. 15140122), and 2.5% Matrigel (Corning Inc., Corning, NY, cat. 354248) for the first three passages. The two PDC lines 997537-175-T-J1-PDC and 415267-285-R-J2-PDC were cultured on uncoated flasks. The 857933-349-R-J2-PDC line was cultured in 6C/Colon 1B media containing advanced DMEM/F-12 (Thermo Fisher Scientific, cat. 12634028), 10 mM HEPES (Thermo Fisher Scientific, cat. 15630080), 1X GlutaMAX supplement (Thermo Fisher Scientific, cat. 35050061), 0.1 mg/mL primocin (InvivoGen, San Diego, CA, cat. ant-pm-2), 10% defined fetal bovine serum, heat inactivated (HyClone Laboratories Inc., Logan, UT, cat. SH30070.03HI), 50% L-WRN conditioned media (ATCC, cat. CRL-3276), 1.25 mM N-Acetyl-L-cysteine (Sigma-Aldrich, cat. A9165), 10 mM nicotinamide (Sigma-Aldrich, cat. N0636), 1X B-27 supplement (Thermo Fisher Scientific, cat. 17504044), 1X N-2 supplement (Thermo Fisher Scientific, cat. […]
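Further: spheroids exposed to drugs for 7 days.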
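Wherever viability, T/C is given: 100% = DMSO vehicle treated spheroids.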

CCc1cc2c(N3CCc4c(cc(Cn5ccnc5)cc4-c4cn(C)nc4C(F)(F)F)C3=O)cc(C)nc2c(OC)n1 + Nc1ccc(C#CCN(C(=O)Cc2ncc(C(F)(F)F)cc2C(F)(F)F)c2ccc(F)cc2)nn1
IC50 (curve of first compound, second compound 0.0316 µM): 8.52 µM | IC50 (curve of first compound, second compound 0.1 µM): > 10 µM | IC50 (curve of first compound, second compound 0.316 µM): > 10 µM | IC50 (curve of first compound, second compound 1 µM): > 10 µM | IC50 (curve of first compound, second compound 3.16 µM): > 10 µM | IC50 (curve of first compound, second compound 10 µM): > 10 µM | viability, T/C (second compound 0.0316 µM, first compound 0.0316 µM): 81.9% | viability, T/C (second compound 0.0316 µM, first compound 0.1 µM): 107% | viability, T/C (second compound 0.0316 µM, first compound 0.316 µM): 72.6% | viability, T/C (second compound 0.0316 µM, first compound 1 µM): 68.3% | viability, T/C (second compound 0.0316 µM, first compound 3.16 µM): 103% | viability, T/C (second compound 0.0316 µM, first compound 10 µM): 44% | viability, T/C (second compound 0.1 µM, first compound 0.0316 µM): 78.7% | viability, T/C (second compound 0.1 µM, first compound 0.1 µM): 102% | viability, T/C (second compound 0.1 µM, first compound 0.316 µM): 94.4% | viability, T/C (second compound 0.1 µM, first compound 1 µM): 93% | viability, T/C (second compound 0.1 µM, first compound 3.16 µM): 71.2% | viability, T/C (second compound 0.1 µM, first compound 10 µM): 54.3% | viability, T/C (second compound 0.316 µM, first compound 0.0316 µM): 73% | viability, T/C (second compound 0.316 µM, first compound 0.1 µM): 79.8% | viability, T/C (second compound 0.316 µM, first compound 0.316 µM): 75.5% | viability, T/C (second compound 0.316 µM, first compound 1 µM): 87% | viability, T/C (second compound 0.316 µM, first compound 3.16 µM): 64% | viability, T/C (second compound 0.316 µM, first compound 10 µM): 89.1% | viability, T/C (second compound 1 µM, first compound 0.0316 µM): 98.6% | viability, T/C (second compound 1 µM, first compound 0.1 µM): 71.5% | viability, T/C (second compound 1 µM, first compound 0.316 µM): 89.5% | viability, T/C (second compound 1 µM, first compound 1 µM): 51.8% | viability, T/C (second compound 1 µM, first compound 3.16 µM): 78.5% | viability, T/C (second compound 1 µM, first compound 10 µM): 72.2% | viability, T/C (second compound 3.16 µM, first compound 0.0316 µM): 93.4% | viability, T/C (second compound 3.16 µM, first compound 0.1 µM): 84.3% | viability, T/C (second compound 3.16 µM, first compound 0.316 µM): 81.9% | viability, T/C (second compound 3.16 µM, first compound 1 µM): 65.7% | viability, T/C (second compound 3.16 µM, first compound 3.16 µM): 86.5% | viability, T/C (second compound 3.16 µM, first compound 10 µM): 65.5% | viability, T/C (second compound 10 µM, first compound 0.0316 µM): 107% | viability, T/C (second compound 10 µM, first compound 0.1 µM): 96.1% | viability, T/C (second compound 10 µM, first compound 0.316 µM): 106% | viability, T/C (second compound 10 µM, first compound 1 µM): 89.2% | viability, T/C (second compound 10 µM, first compound 3.16 µM): 69.9% | viability, T/C (second compound 10 µM, first compound 10 µM): 49.9%

CC1COCCN1c1cc(-c2ccnn2C)c2ccnc(-c3ccn[nH]3)c2n1 (stereo not given)
viability, T/C (compound 0.0316 µM): 68% and 74.9% and 58.3% | viability, T/C (compound 0.1 µM): 37.9% and 28.1% (2×) | viability, T/C (compound 0.316 µM): 24.9% and 25.2% and 20.4% | viability, T/C (compound 1 µM): 17.2% and 25.2% and 29.2% | viability, T/C (compound 3.16 µM): 15.5% and 20.5% and 13.3% | viability, T/C (compound 10 µM): 10.3% and 16% and 14.4% | IC50 (curve of compound): 0.064 µM and 0.0587 µM and 0.0437 µM

COc1ccc([C@@H](O)c2cc(-c3ncnc4cc(N5CCOCC5)ccc34)c(F)cc2Cl)nn1
viability, T/C (compound 0.0316 µM): 115% and 94.1% and 79.4% | viability, T/C (compound 0.1 µM): 91.2% and 92.7% and 91% | viability, T/C (compound 0.316 µM): 81.5% and 95.9% and 99.5% | viability, T/C (compound 1 µM): 49.6% and 78.9% and 67.1% | viability, T/C (compound 3.16 µM): 59.4% and 74.8% and 59% | viability, T/C (compound 10 µM): 43.6% and 27.3% and 43.8% | IC50 (curve of compound): 4.11 µM and 5.57 µM and > 10 µM

CC1COCCN1c1cc(C2(O)CC3CCC(C2)O3)c2cnn(-c3ccn[nH]3)c2n1 (stereo not given)
viability, T/C (compound 0.0316 µM): 38.3% and 52.8% and 44.6% | viability, T/C (compound 0.1 µM): 16.8% and 26.7% and 40.6% | viability, T/C (compound 0.316 µM): 18.2% and 26.2% and 20% | viability, T/C (compound 1 µM): 23.1% and 20.1% and 17.9% | viability, T/C (compound 3.16 µM): 9.3% and 14.8% and 12% | viability, T/C (compound 10 µM): 6.01% and 4.54% and 7.55% | IC50 (curve of compound): < 0.0316 µM

CNCc1ccc(-c2[nH]c3cc(F)cc4c3c2CCNC4=O)cc1
viability, T/C (compound 0.0316 µM): 90.6% and 92.2% and 105% | viability, T/C (compound 0.1 µM): 111% and 79.6% and 87% | viability, T/C (compound 0.316 µM): 112% and 90% and 90.3% | viability, T/C (compound 1 µM): 107% and 83.3% and 103% | viability, T/C (compound 3.16 µM): 110% and 98.3% and 105% | viability, T/C (compound 10 µM): 93.4% and 76.8% and 66.9% | IC50 (curve of compound): > 10 µM

From PubChem BioAssay AID1963827 (Molecular Pharmacology Branch, DTP, NCI, 2024)
